Measurements reported in ChEMBL document CHEMBL5131566, “Small-Molecule Thioesters as SARS-CoV-2 Main Protease Inhibitors: Enzyme Inhibition, Structure-Activity Relationships, Antiviral Activity, and X-ray Structure Determination” (J Med Chem, 2022).

Biological target: T1, Replicase polyprotein 1ab (Severe acute respiratory syndrome coronavirus 2, UniProt P0DTD1)
Experiment: Inhibition of recombinant his tagged SARS CoV-2 main protease expressed in Escherichia coli BL21 assessed as inhibition constant using Boc-Abu-Tle-Leu-Gln-AMC37 as fluorogenic substrate pre-incubated for 5 mins followed by substrate addition measured after 60 mins by FRET based assay
Settings: not given

Going from `O=C(Sc1nc2ccccc2s1)c1ccc(-c2ccccc2)o1` to `O=C(Sc1nc2ccccc2s1)c1ccc(-c2ccc(Br)cc2)o1`, the Ki falls from 612 nM to 13 nM (47-fold).

Going from `Cc1nnc(SC(=O)c2cc3ccccc3o2)s1` to `O=C(Sc1nc2ccccc2s1)c1cc2ccccc2[nH]1`, the Ki rises from 35.7 nM to 72.6 nM (2-fold).

Going from `O=C(Sc1nc2ccccc2s1)c1ccc2ccccc2n1` to `Cc1nnc(SC(=O)c2cc3ccccc3[nH]2)n1C(=O)c1cc2ccccc2[nH]1`, the Ki rises from 51 nM to 77.3 nM (1.5-fold). The first binds more tightly here.

Test system: Calu-3
Experiment: Cytotoxicity against human Calu-3 cells assessed as reduction in cell […] at 10 uM incubated for 24 hrs by cell titer glo luminescent assay
Type: toxicity, cell-based
Settings: calu-3, 24 h

In the case of `Cc1nnc(SC(=O)c2ccc(-c3ccccc3)o2)s1`, the Activity is reported as “Non-Toxic”.
For `O=C(Sc1ncccn1)c1ccc(-c2ccc(Br)cc2)s1`, the Activity was “Non-Toxic”.
For `O=C(Sc1nc2ccccc2s1)c1cc2ccccc2[nH]1`, the Activity was “Non-Toxic”.

Biological target: T1, Replicase polyprotein 1ab
Experiment: Inhibition of SARS CoV-2 main protease
Settings: not given

Work on `S=C(SSC(=S)N1CCOCC1)N1CCOCC1` yielded an IC50 of 4.03 µM.

Test system: Vero 76
Experiment: Cytotoxicity against African green monkey Vero 76 cells assessed as reduction in cell […] at 10 uM incubated for 24 hrs by cell titer glo luminescent assay
Type: toxicity, cell-based
Settings: chlorocebus sabaeus, vero 76, 24 h

In the case of `Cc1nnc(SC(=O)c2ccc(-c3ccccc3)o2)s1`, the Activity is reported as “Non-Toxic”.
In the case of `O=C(Sc1ncccn1)c1ccc(-c2ccc(Br)cc2)s1`, the Activity is reported as “Non-Toxic”.
For `O=C(Sc1nc2ccccc2s1)c1cc2ccccc2[nH]1`, the Activity was “Non-Toxic”.

Biological target: Replicase polyprotein 1ab (Severe acute respiratory syndrome coronavirus 2) (UniProt P0DTD1)
Experiment: Time dependent inhibition of recombinant his tagged SARS CoV-2 main protease expressed in Escherichia coli BL21 assessed as ratio of Kinact/Ki using MCA-AVLQSGFR-K(DNP)-K-NH2 as substrate pre-incubated for 5 mins followed by substrate addition measured after 60 mins by FRET based assay
Settings: not given

Compared with `O=C(Sc1nc2ccccc2s1)c1ccc(-c2ccccc2)o1`, `O=C(Sc1nc2ccccc2s1)c1ccc(-c2ccc(Br)cc2)o1` is 2.9-fold higher in Ratio: 515 M⁻¹ s⁻¹ for the first, 1490 M⁻¹ s⁻¹ for the second.

`Cc1nnc(SC(=O)c2cc3ccccc3o2)s1` and `O=C(Sc1nc2ccccc2s1)c1ccc2ccccc2n1` are within 1.5-fold of each other in Ratio: 5190 M⁻¹ s⁻¹ for the first, 5450 M⁻¹ s⁻¹ for the second.

Work on `Cc1nnc(SC(=O)c2cc3ccccc3[nH]2)n1C(=O)c1cc2ccccc2[nH]1` yielded a Ratio of 12200 M⁻¹ s⁻¹.

Biological target: T1, Replicase polyprotein 1ab
Experiment: Inhibition of recombinant his tagged SARS CoV-2 main protease expressed in Escherichia coli BL21 using Boc-Abu-Tle-Leu-Gln-AMC37 as fluorogenic substrate pre-incubated for 5 mins followed by substrate addition measured after 60 mins by FRET based assay
Settings: not given

Going from `Cc1nnc(SC(=O)c2ccc(Br)o2)s1` to `Cc1nnc(SC(=O)c2cc3ccccc3o2)s1`, the IC50 falls from 481 nM to 316 nM (1.5-fold).

`O=C(Sc1ncccn1)c1ccc(-c2ccccc2)s1` and `O=C(Sc1ncccn1)c1ccc(-c2ccc(Br)cc2)s1` are within 1.5-fold of each other in IC50: 13.7 nM for the first, 14.4 nM for the second.

Compared with `Cc1nnc(SC(=O)c2cc3ccccc3[nH]2)s1`, `O=C(Sc1nc2ccccc2s1)c1cc2ccccc2[nH]1` is 5.3-fold lower in IC50: 624 nM for the first, 117 nM for the second.

First: Cc1nnc(SC(=O)c2ccc(-c3ccccc3)o2)s1
Second: O=C(Sc1nc2ccccc2s1)c1ccc(-c2ccccc2)o1
The IC50 of the first is 4.8-fold lower: 34.4 nM for the first, 166 nM for the second. The first is the more potent here.

First: O=C(Sc1ncccn1)c1cc2ccccc2s1
Second: O=C(Sc1nc2ccccc2s1)c1ccc2ccccc2n1
The IC50 of the first is 5.7-fold lower: 15.5 nM for the first, 88.9 nM for the second.

`Cc1nnc(SC(=O)c2cc3ccccc3[nH]2)n1C(=O)c1cc2ccccc2[nH]1` and `Cc1cc(C)nc(SC(=O)c2ccc(C#Cc3ccccc3)o2)n1` are within 1.5-fold of each other in IC50: 281 nM for the first, 288 nM for the second.

With `O=C(Sc1nc2ccccc2s1)c1ccc(-c2ccc(Br)cc2)o1` the IC50 was 255 nM.

Test system: SARS-CoV-2
Experiment: microbe, parasite or virus in culture
Settings: Severe acute respiratory syndrome coronavirus 2, Calu-3

`Cc1nnc(SC(=O)c2ccc(-c3ccccc3)o2)s1` and `O=C(Sc1nc2ccccc2s1)c1cc2ccccc2[nH]1` are within 1.5-fold of each other in EC50: 100 nM for the first, 137 nM for the second.

Test system: not listed separately
Experiment: Stability of the compound assessed as glutathione reactivity by measuring reduction at pH 7.4 by HPLC/MS method
Type: physicochemical
Settings: buffer

With `O=C(Sc1nc2ccccc2s1)c1ccc2ccccc2n1` the Stability was “Stable”.

Biological target: Replicase polyprotein 1ab (Severe acute respiratory syndrome coronavirus 2) (UniProt P0DTD1)
Experiment: Inhibition of recombinant his tagged SARS CoV-2 main protease expressed in Escherichia coli BL21 using Boc-Abu-Tle-Leu-Gln-AMC37 as fluorogenic substrate at 10 uM pre-incubated for 5 mins followed by substrate addition measured after 60 mins by FRET based assay relative to control
Settings: not given

Going from `O=C(Sc1ccc(Cl)cc1)c1cc2ccccc2[nH]1` to `O=C(Sc1ccc(Cl)cc1Cl)c1cc2ccccc2[nH]1`, the inhibition rises from 4% to 9%.

`O=C(Sc1nc2ccccc2s1)c1cc2ccccc2o1` and `O=C(Sc1nnc(C(F)(F)F)s1)c1ccc(C#Cc2ccccc2)o1` are the same in inhibition: 14% for the first, 14% for the second.

Going from `O=C(Sc1nnc(C(F)(F)F)s1)c1cc2ccccc2[nH]1` to `CCOc1nnc(SC(=O)c2cc3ccccc3[nH]2)s1`, the inhibition rises from 26% to 37%.

For `CCOc1ccc2cc(C(=O)Sc3nccc(C)n3)[nH]c2c1`, the inhibition was -8%.

Biological target: T1, Replicase polyprotein 1ab
Experiment: Inhibition of full length SARS CoV-2 main protease expressed in Escherichia coli BL21 (DE3) expression system using Mca-AVLQSGFR-K(Dnp)K as substrate by fluorescence method
Settings: not given

`Oc1ccc2ccccc2c1SSc1c(O)ccc2ccccc12` and `O=C(NCCN1C(=O)C=CC1=O)c1cc2ccccc2[nH]1` are within 1.5-fold of each other in IC50: 2350 nM for the first, 2080 nM for the second.
